Data from PubChem BioAssay (NCI).
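Five concentrations, 48 hours, 96-well plates. TGI: total growth inhibition.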

What was measured:
Assay in all cases: DTP human tumour cell line panel, 48 h
[1] = tested on: OVCAR-8 ovarian
[2] = tested on: HS 578T breast
[3] = tested on: 786-0 renal
[4] = tested on: U251 CNS
[5] = tested on: NCI-H23 lung
[6] = tested on: ACHN renal
[7] = tested on: COLO 205 colon
[8] = tested on: SW-620 colon
[9] = tested on: SNB-19 CNS
[10] = tested on: SR leukemia
[11] = tested on: A498 renal
[12] = tested on: LOX IMVI melanoma
[13] = tested on: NCI-H460 lung
[14] = tested on: SK-MEL-2 melanoma
[15] = tested on: T-47D breast
[16] = tested on: SF-295 CNS
[17] = tested on: SK-MEL-28 melanoma
[18] = tested on: MDA-N
[19] = tested on: RPMI-8226 leukemia
[20] = tested on: UACC-257 melanoma
[21] = tested on: A549 NSCLC
[22] = tested on: M14 melanoma
[23] = tested on: OVCAR-3 ovarian
[24] = tested on: NCI-H522 lung
[25] = tested on: SN12C renal
[26] = tested on: NCI-H226 lung
[27] = tested on: BT-549 breast
[28] = tested on: OVCAR-5 ovarian
[29] = tested on: HOP-92 NSCLC
[30] = tested on: OVCAR-4 ovarian
[31] = tested on: HCC-2998 colon
[32] = tested on: PC-3 prostate
[33] = tested on: UACC-62 melanoma
[34] = tested on: MDA-MB-231 breast
[35] = tested on: EKVX NSCLC
[36] = tested on: IGROV1 ovarian
[37] = tested on: KM12 colon
[38] = tested on: TK-10 renal
[39] = tested on: MDA-MB-435
[40] = tested on: CAKI-1 renal
[41] = tested on: HOP-62 NSCLC
[42] = tested on: SF-539 CNS
[43] = tested on: SK-OV-3 ovarian
[44] = tested on: SNB-75 CNS
[45] = tested on: K-562 leukemia
[46] = tested on: CCRF-CEM leukemia
[47] = tested on: HCT-15 colon
[48] = tested on: MOLT-4 leukemia
[49] = tested on: UO-31 renal
[50] = tested on: SF-268 CNS
[51] = tested on: SK-MEL-5 melanoma
[52] = tested on: HT29 colon
[53] = tested on: DU-145 prostate
[54] = tested on: MCF7 breast
[55] = tested on: NCI/ADR-RES ovarian
[56] = tested on: HL-60(TB) leukemia
[57] = tested on: HCT-116 colon
[58] = tested on: MALME-3M melanoma

Measured: TGI

CC(=O)OC1(C)C(=O)OC/C2=C/CN(C)CCC(OC(=O)C(O)(C(C)Cl)CC1C)C2=O (stereo not given)
not listed: [58]
> 100 µM: all other assays above

O=C(CC(=O)Nc1ccc(C(=O)O)cc1)Nc1ccc(C(=O)O)cc1
40 µM: [14]
not listed: [28] | [41] | [44] | [47]
> 100 µM: all other assays above

Cc1c2ccccc2c(C)n2c1nc1cc3ccccc3cc12
3.48 µM: [44]
2.18 µM: [3] | [23]
3.6 µM: [21]
4.46 µM: [51]
3.7 µM: [4]
2.55 µM: [13]
8.89 µM: [29]
3.12 µM: [30]
3.67 µM: [47]
2.15 µM: [52]
3.9 µM: [33]
4.88 µM: [24]
3.78 µM: [48]
2.29 µM: [28]
2.63 µM: [58]
8.43 µM: [38]
3.07 µM: [39]
2.89 µM: [18] | [40]
2.79 µM: [32]
2.28 µM: [16]
3.32 µM: [50]
4.59 µM: [56]
2.8 µM: [5]
4.99 µM: [14]
5.01 µM: [9]
2.76 µM: [22] | [41]
2.78 µM: [53]
3.56 µM: [2]
6.13 µM: [19]
3.27 µM: [31]
2.92 µM: [17]
2.38 µM: [55]
6.65 µM: [46]
2.71 µM: [34] | [57]
3.98 µM: [27]
7.74 µM: [43]
2.53 µM: [36]
2.62 µM: [37]
9.75 µM: [35]
1.6 µM: [54]
7.34 µM: [10]
> 10 µM: [6] | [8] | [15] | [20] | [25] | [45]
2.82 µM: [7]
2.21 µM: [1]
2.86 µM: [42]
